Assay results taken from paper PMC4366844, “Biochemical and Pharmacological Characterizations of ESI-09 Based EPAC Inhibitors: Defining the ESI-09 “Therapeutic Window”” (Scientific Reports, 2015).
≈ marks a conversion by molar mass, not a printed value. Where “and” joins values, the source holds several entries; their conditions need not be identical. Equal entries are not always repeated. Entries after “also recorded” stand apart in the source; their conditions may differ. Where two headings read alike, the source gives them in different places.

Legend:
EPAC2 [1] = biological target: T1, EPAC2 (Mus musculus, UniProt Q9EQZ6); assay: 8-NBD-cAMP competition assay; assay type: binding
T1 construct: made in house
T1 sequence (Q9EQZ6 1-1011): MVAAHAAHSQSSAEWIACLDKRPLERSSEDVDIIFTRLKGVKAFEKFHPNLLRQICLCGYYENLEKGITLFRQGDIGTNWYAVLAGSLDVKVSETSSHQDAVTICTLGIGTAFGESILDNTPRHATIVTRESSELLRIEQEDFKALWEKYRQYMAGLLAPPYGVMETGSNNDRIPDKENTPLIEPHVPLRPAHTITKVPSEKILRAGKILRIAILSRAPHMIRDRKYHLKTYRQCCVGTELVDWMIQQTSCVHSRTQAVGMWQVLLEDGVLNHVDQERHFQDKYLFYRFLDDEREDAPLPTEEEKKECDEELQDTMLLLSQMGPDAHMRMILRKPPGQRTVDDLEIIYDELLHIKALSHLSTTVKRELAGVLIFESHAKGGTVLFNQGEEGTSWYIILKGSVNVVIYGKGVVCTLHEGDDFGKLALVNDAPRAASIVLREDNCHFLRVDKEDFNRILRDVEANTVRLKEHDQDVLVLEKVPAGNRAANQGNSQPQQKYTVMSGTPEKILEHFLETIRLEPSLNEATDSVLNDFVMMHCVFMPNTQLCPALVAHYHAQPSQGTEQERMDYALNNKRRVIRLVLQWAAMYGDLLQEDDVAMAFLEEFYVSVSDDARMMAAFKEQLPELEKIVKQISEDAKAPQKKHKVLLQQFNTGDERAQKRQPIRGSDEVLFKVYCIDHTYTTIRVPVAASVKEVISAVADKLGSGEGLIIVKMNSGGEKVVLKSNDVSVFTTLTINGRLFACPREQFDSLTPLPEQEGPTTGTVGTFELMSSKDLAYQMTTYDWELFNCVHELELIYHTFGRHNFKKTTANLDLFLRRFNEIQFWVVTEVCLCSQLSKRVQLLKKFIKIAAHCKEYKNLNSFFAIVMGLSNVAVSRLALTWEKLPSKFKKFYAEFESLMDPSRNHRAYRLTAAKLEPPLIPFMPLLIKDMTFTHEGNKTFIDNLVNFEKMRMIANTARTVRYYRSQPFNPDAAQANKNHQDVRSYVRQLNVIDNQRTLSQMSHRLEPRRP
Method: Test compounds at various concentrations were added to the reaction mix, and fluorescence intensity signals from the 8-NBD probe before and after the addition of test compounds was monitored using a SpectaMaxM2 microplate reader (Molecular Devices, Silicon Valley, CA, USA) with excitation/emission wavelengths set at 470/540 nm.

EPAC2 [2] = biological target: T1, EPAC2; assay: In vitro GEF activity assay (Rap1b-BODIPY-GDP), EPAC2; assay type: biochemical; conditions: for mode of inhibition toward cAMP: cAMP titration with 5 µM ESI-09 or 1 µM HJC0726
[3] = Solubility measurement by HPLC analysis; assay type: physicochemical
Method: ESI-09 and its analogs were synthesized following the recently reported synthetic procedures. The solubility of the selected compounds was measured by HPLC analysis following the reported protocol.

EPAC2 [4] = biological target: T1, EPAC2; assay: Protein thermal denaturation assay (Sypro Orange), EPAC2
Method: Thermal denaturation assay was performed using a BioRad CFX96 Touch^TM Real-Time PCR Detection system as described previously. […] Melting temperatures (Tm) were calculated by fitting the sigmoidal melt curve to the Boltzmann equation as described using GraphPad Prism, with R^2 values of >0.99[40].

EPAC1h 149-318 = biological target: T2, EPAC1h 149-318 (Homo sapiens, UniProt O95398); assay: {15N,1H} HSQC NMR of EPAC1 cAMP binding domain
T2 construct: the CBD of human EPAC1 (aa. 149-318); made in house
T2 sequence (O95398 149-318 isoform O95398-3): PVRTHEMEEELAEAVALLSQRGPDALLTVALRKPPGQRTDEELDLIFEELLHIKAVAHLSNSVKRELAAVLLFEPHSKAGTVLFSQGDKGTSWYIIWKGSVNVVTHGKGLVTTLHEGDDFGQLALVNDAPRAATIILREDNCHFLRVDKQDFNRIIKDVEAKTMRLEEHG
Excerpt: In addition to the thermo-unfolding experiments, {^15N, ^1H} Heteronuclear Single Quantum Coherence (HSQC) spectra were acquired to characterize the interaction between ESI-09 and the CBD of human EPAC1 (aa. 149-318) and address whether ESI-09 acts as a non-specific denaturant. The {^15N, ^1H} chemical shifts serve as excellent sensors for protein structure and dynamics as they provide information about the local chemical environment surrounding the amides of every amino acid (except prolines) within the protein. EPAC1h (149-318) has already been extensively analyzed by NMR spectroscopy. It results in HSQC spectra with well-dispersed peaks, which are representative of a fully folded protein (Fig. 5A). […]
EPAC1h 149-318 was expressed and purified using previously documented protocols[24][25][26][27] and dialyzed into NMR buffer (50 mM Tris, 50 mM NaCl, 2 mM EDTA, 2 mM EGTA, 1 mM DTT and 0.02% NaN3, pH 7.6). […] Gradient- and sensitivity- enhanced {^15N, ^1H} heteronuclear single quantum coherence (HSQC) spectra with 128 (t1) and 1024 (t2) complex points and spectral widths of 31.82 and 14.06 ppm for the ^15N and ^1H dimensions, respectively, were recorded with 8 scans and a recycle delay of 1 s. […] All spectra were processed with NMRPipe[41] and analyzed in Sparky[42].

fatal rickettsioses = conditions: mice, daily dose of 10 mg/kg IP or 50 mg/kg oral gavage; cited from earlier work
[5] = system: ovalbumin-induced oral tolerance; conditions: mice, daily dose of 10 mg/kg IP or 50 mg/kg oral gavage; cited from earlier work
[6] = system: pancreatic ductal adenocarcinoma; conditions: in vivo administration; cited from earlier work
[7] = design: method as in Our recent studies; conditions: ref Our recent studies; cited from earlier work
EPAC2 [8] = conditions: cited from earlier work
full-length EPAC1 = biological target: T3, full-length EPAC1 (Homo sapiens, UniProt O95398); assay: In vitro GEF activity assay (Rap1b-BODIPY-GDP), EPAC1; assay type: biochemical; conditions: vs ESI-09
T3 construct: made in house
T3 sequence (O95398 1-881 isoform O95398-3): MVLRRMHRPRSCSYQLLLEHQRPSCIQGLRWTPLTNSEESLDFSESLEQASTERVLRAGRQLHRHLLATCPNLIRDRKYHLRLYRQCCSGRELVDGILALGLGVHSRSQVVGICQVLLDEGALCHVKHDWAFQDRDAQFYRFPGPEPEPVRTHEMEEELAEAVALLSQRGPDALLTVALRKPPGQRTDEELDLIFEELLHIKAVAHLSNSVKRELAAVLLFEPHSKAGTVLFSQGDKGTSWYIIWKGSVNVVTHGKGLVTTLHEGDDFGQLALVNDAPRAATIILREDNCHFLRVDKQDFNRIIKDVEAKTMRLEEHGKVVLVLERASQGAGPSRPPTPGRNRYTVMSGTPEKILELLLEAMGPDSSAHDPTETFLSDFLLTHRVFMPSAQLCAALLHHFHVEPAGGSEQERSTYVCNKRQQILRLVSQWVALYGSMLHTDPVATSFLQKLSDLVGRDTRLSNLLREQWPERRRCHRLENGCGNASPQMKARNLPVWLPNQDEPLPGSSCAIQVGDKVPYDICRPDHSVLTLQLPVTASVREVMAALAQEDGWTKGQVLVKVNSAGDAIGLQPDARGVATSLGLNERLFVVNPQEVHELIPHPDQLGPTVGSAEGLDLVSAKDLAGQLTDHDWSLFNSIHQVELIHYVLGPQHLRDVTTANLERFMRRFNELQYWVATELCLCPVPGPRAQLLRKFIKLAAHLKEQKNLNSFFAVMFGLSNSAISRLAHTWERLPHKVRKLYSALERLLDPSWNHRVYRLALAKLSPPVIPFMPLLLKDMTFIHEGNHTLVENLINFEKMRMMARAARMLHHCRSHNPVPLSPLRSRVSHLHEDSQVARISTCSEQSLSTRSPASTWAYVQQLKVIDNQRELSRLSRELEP
Excerpt: The guanine nucleotide exchange activity of EPAC proteins can be biochemically determined using a coupled exchange assay, in which Rap1 loaded with a fluorescent GDP analog, 2′-/3′-O-(N′-methylanthraniloyl)guanosine-5′-O-diphosphate (MANT-GDP), is used as the substrate. The exchange of Rap1-bound MANT-GDP by free unlabeled GDP leads to a decrease in fluorescence as MANT-GDP contains an environment sensitive fluorophore, MANT, whose fluorescence intensity increases upon binding to Rap1. However, the MANT-GDP based GEF assay is not well suited for ESI-09 analogs because they absorb lights within the excitation emission wavelengths of the fluorophore.
Recombinant full-length human EPAC1, mouse EPAC2 and C-terminal truncated Rap1B(1-167) were purified as described previously.
In vitro EPAC GEF activity was measured as previously described with the exception that purified Rap1B(1-167) was loaded with BODIPY-GDP instead of MANT-GDP[39]. […] The exchange reaction was monitored using a Spectramax M2 Plate Reader (Molecular Devices) with the excitation and emission wavelengths set at 485 and 515 nm, respectively. […]

[9] = 50 nM EPAC2, 60 nM 8-NBD-cAMP, read-out: IC50, potency in competing with 8-NBD-cAMP binding to EPAC2
[10] = water, read-out: Solubility in water (converted)

Molecule `CC(C)(C)c1cc(C(=O)/C(C#N)=N/Nc2cc(Cl)ccc2Cl)no1` [HJC0696] has an IC50 (EPAC2 [1]; [9]) of 7.3 ± 1.2 µM.

In the case of `CC(C)(C)c1cc(C(=O)C(C#N)=NNc2cccc(Cl)c2)no1` [ESI-09, 3-[5-(tert-butyl)isoxazol-3-yl]-2-[2-(3-chlorophenyl) hydrazono] -3-oxopropanenitrile], the IC50 (EPAC2 [1]; [9]) is reported as 9 ± 1.2 µM, the “mode of inhibition toward cAMP” value (EPAC2 [2]) is reported as “reversible competitive EPAC2 inhibitors” and the solubility ([3]; ethanol, organic solvent or mixture, ethanol, read-out: Solubility in ethanol (converted)) is reported as 15000 µg/mL and 45300 µM. The solubility [3, 10] was 5.95 ± 0.83 µg/mL (≈ 18 µM), the “effect on Tm of EPAC2” value (EPAC2 [4]; ESI-09 1-20 µM, no cAMP) was “didn't shift the Tm to lower temperature; also recorded: no significant difference in thermo-denaturation” and the “effect on Tm of EPAC2” value (EPAC2 [4]; ESI-09 in the presence of 100 µM cAMP) was “didn't lead to further changes in Tm”. The “effect on HSQC spectrum of EPAC1h 149-318” value (EPAC1h 149-318; 50 μM ESI-09, 100 μM protein) was “Only minor chemical shift changes”, the “effect on HSQC spectrum of EPAC1h 149-318” value (EPAC1h 149-318; 500 μM ESI-09, 100 μM protein) was “almost every peak broadens beyond detection” and the “effect in fatal rickettsioses” value (fatal rickettsioses) was “protecting mice from fatal rickettsioses”. For the same molecule, the “effect on ovalbumin-induced oral tolerance” value [5] was “compromising ovalbumin-induced oral tolerance”, the “effect on pancreatic ductal adenocarcinoma invasion and metastasis” value [6] was “inhibits pancreatic ductal adenocarcinoma invasion and metastasis” and the bioavailability [7] was “excellent bioavailability”.

In the case of `Cc1ccc(S(=O)(=O)c2c(C)cc(C)cc2C)cc1` [ESI-05], the EPAC isoform selectivity (EPAC2 [8]) is given as “exclusively selective for EPAC2”.

With `CC(C)(C)c1cc(C(=O)/C(C#N)=N/Nc2ccccc2Cl)no1` [HJC0693] the IC50 (EPAC2 [1]; [9]) was 28.3 ± 4 µM.

With `CC(C)(C)c1cc(C(=O)/C(C#N)=N/Nc2cc(Cl)cc(Cl)c2)no1` [HJC0726] the IC50 (EPAC2 [1]; [9]) was 1.9 ± 0.3 µM, the “increase in potency relative to ESI-09 in the 8-NBD-cAMP competition assay” value (EPAC2 [1]; vs ESI-09) was 5 fold and the “mode of inhibition toward cAMP” value (EPAC2 [2]) was “reversible competitive EPAC2 inhibitors”. For the same molecule, the “potency relative to ESI-09 in inhibiting EPAC2” value (EPAC2 [2]; vs ESI-09) was “five-fold more potent”, the “potency relative to ESI-09 in inhibiting EPAC1” value (full-length EPAC1) was “five-fold more potent” and the solubility ([3]; ethanol, organic solvent or mixture, read-out: Solubility in ethanol (converted)) was 6800 µg/mL and 18600 µM. For the same molecule, the solubility [3, 10] was 45.4 µg/mL and 124 µM.

`CC(C)(C)c1cc(C(=O)/C(C#N)=N/Nc2ccc(Cl)c(Cl)c2)no1` [HJC0777] gave an IC50 (EPAC2 [1]; [9]) of 3 ± 0.6 µM.

`CC(C)(C)c1cc(C(=O)/C(C#N)=N/Nc2ccc(Cl)cc2)no1` [HJC0694] gave an IC50 (EPAC2 [1]; [9]) of 26.5 ± 4.1 µM.

`CC(C)(C)c1cc(C(=O)/C(C#N)=N/Nc2cccc(Cl)c2Cl)no1` [HJC0750] gave an IC50 (EPAC2 [1]; [9]) of 35.6 ± 7.8 µM.

For `Nc1ncnc2c1ncn2[C@@H]1O[C@@H]2COP(=O)(O)O[C@H]2[C@H]1O` [cAMP, reference compound], the “melting temperature Tm of EPAC2” value (EPAC2 [4]; in the presence of 100 µM cAMP (about 48°C without)) was “around 46 °C”.

In the case of `CC(C)(C)c1cc(C(=O)/C(C#N)=N/Nc2ccccc2)no1` [HJC0695], the IC50 (EPAC2 [1]) is reported as 59.8 ± 9.4 µM.
